Results from patent US7589122B2, “Method for soybean aphid population suppression and monitoring using aphid- and host-plant-associated semiochemical compositions” (MSTRS Technologies, Inc., priority 2004, dated 2009).

Key:
[1] = test system: male and gynoparous female soybean aphids; test: Field trapping of male and gynoparous soybean aphids with synthetic sex pheromone lures; assay type: in vivo, Aphis glycines; conditions: synthetic pheromone lures 10 mg, soybean fields (FIG. 12)
Experimental: FIG. 16 is a graph of mean number of winged soybean aphids caught in water traps baited with different combinations of catnip oil and the two pheromone compounds (n=5, columns with no letters in common are significant different, ANOVA followed by FPLSD test, P<0.05)
(§1) Field Test. Field trapping tests were conducted in soybean field from 2002 to 2003 (Ames, Iowa). Synthetic compounds at a dose of 100 mg (for plant volatiles) and 10 mg for soybean aphid pheromones were prepared in either hexane or methylene chloride or ether. Medical peerless cotton rolls (5 cm long, 100% cotton) were used as dispensers for loading plant volatiles, and borosilicate glass vials (Chromal) were housed for pheromones. Two trap designs were used, and the first type is similar to that described in Zhu et al., (1999), and the second one is the most common trap used for aphid trapping, the water trap. The trap was hung from bamboo stakes, 1.2 m above the ground. Within a replicate (N=5-6), traps were set at least 10 m apart. The traps were checked daily, and trap position within a series was randomized to minimize the effects of habitat heterogeneity.

[2] = test system: gynoparous female antennae of soybean aphids; test: EAG dose-response of gynoparous female soybean aphid antennae to synthetic pheromone compounds; parameters: species or system Aphis glycines; conditions: when pheromone exceeded a 1 mg dosage (FIG. 11 lower)
Text: FIG. 11 is two graphs of EAG dose-response curves from male (upper part) and gynoparous female antennae (lower part) of soybean aphids to synthetic pheromone candidate compounds (n=4; different letters within a series indicate significant differences, ANOVA followed by FPLSD test, P<0.05)
EAG dose-responses of male and gynoparous soybean aphids to the identified sex pheromone compounds.

syrphids = test: Field trapping of predatory insects with attractant compounds: syrphids; assay type: in vivo, Syrphidae (syrphids); conditions: 100 mg bait, Iowa soybean field 2003 (FIG. 7)
Experimental: (§2) FIG. 7 is a graph of the mean number of predatory insects caught in traps baited with 100 mg of methyl salicylate and 2-phenylethanol, and the control from an Iowa soybean field in 2003.
as §1

[3] = test system: antennae of winged soybean aphids, Aphis glycines; test: EAG responses of winged soybean aphids to soybean associated volatile compounds; conditions: relative to the control (FIG. 3)
Text: FIG. 3 is a graph of EAG responses of winged soybean aphids, Aphis glycines, to some soybean associated volatile compounds.
EAG responses of soybean aphids to soybean plant volatiles and their attractiveness in the field. […] All other compounds elicited EAG responses seemed not to be attractive to winged aphids relative to the control.

Harmonia axyridis = test: Field trapping of predatory insects with attractant compounds: Harmonia axyridis; assay type: in vivo; conditions: 100 mg bait, vs control (FIG. 7)
Experimental: as §2, §1

[4] = test system: soybean aphids on soybean plants; test: Caged greenhouse experiment: effect of methyl salicylate on soybean aphid colonizing and growth; assay type: in vivo, Aphis glycines
Experimental: The effect of Methyl salicylate on soybean aphid growth. This experiment was conducted in the green house, where cages of soybean plants treated with dispensers loaded 4 g of synthetic methyl salicylate. Newly emerged winged soybean aphids on one cut-soybean leaf (dried) were placed in the middle of the cage, which is 30 cm away from the potted soybean plants (V2 stage) with or without treatment of methyl salicylate. For plants treated with methyl salicylate, the cotton roll was placed in the center of the plant, and was replaced with a newly loaded one after one week. The number of winged aphids on each plant were counted 2 hours after introducing the winged aphids, and continued for a week. The number of wingless soybean aphids produced from those landed winged aphids was also counted everyday for about two weeks.

[5] = test system: Coccinella septempunctata; test: Field trapping of predatory insects with attractant compounds: Coccinella septempunctata; assay type: in vivo; conditions: 100 mg bait, Iowa soybean field 2003 (FIG. 7)
Experimental: as §2
FIG. 8 is a graph of the mean number of Coccinella septempunctata caught in traps baited with different doses of methyl salicylate from an Iowa soybean field in 2004.
as §1

winged soybean aphids = test: Field trapping of winged soybean aphids with selected soybean volatile compounds; assay type: in vivo, Aphis glycines; conditions: traps baited with synthetic soybean volatile, 100 mg, soybean field (FIG. 4)
Experimental: FIG. 4 is a graph of the number of winged soybean aphids caught per trap baited with some selected soybean volatile compounds (synthetic) in the soybean field.
as §1

Compound: CC1=COC(=O)[C@H]2[C@@H]1CC[C@@H]2C [nepetalactone, (4aS,7S,7aR)-nepetalactone]
- number of male and gynoparous soybean aphids caught in traps [1]: Significantly lower catches
- EAG response of gynoparous female antennae [2]: higher EAG response

Compound: OCCc1ccccc1 [2-phenylethanol]
- attraction of syrphids to baited traps (syrphids): strongest attraction
- EAG responses of winged soybean aphids [3]: significantly stronger than the control

Compound: CC1=CO[C@@H](O)[C@H]2[C@@H]1CC[C@@H]2C [nepetalactol, (1R,4aS,7S,7aR)-nepetalactol]
- number of male and gynoparous soybean aphids caught in traps [1]: Significantly lower catches

Compound: COC(=O)c1ccccc1O [methyl salicylate]
- number of Harmonia axyridis caught in baited traps (Harmonia axyridis): not significantly differed from the control
- attraction of syrphids to baited traps (syrphids): attracted to some syrphids
- growth of wingless soybean aphids on soybean leaves ([4]; caged potted soybean plants treated vs untreated (FIG. 17 lower)): suppress the growth
- soybean aphid colonizing on soybean plants (winged aphids found on potted plants) ([4]; caged potted soybean plants treated vs untreated (FIG. 17 upper)): significantly reducing
- attraction of adults of Coccinella septempunctata to baited traps [5]: significantly attractive
- EAG responses of winged soybean aphids [3]: significantly stronger than the control

Compound: CC(=O)CCC=C(C)C [6-methyl-5-hepten-2-one]
- EAG responses of winged soybean aphids [3]: significantly stronger than the control

Compound: C=CC(C)(O)CCC=C(C)C (stereo not shown) [linalool]
- EAG responses of winged soybean aphids [3]: significantly stronger than the control

Compound: CCC/C=C/C=O [(E)-2 hexenal]
- EAG responses of winged soybean aphids [3]: highest response

Compound: O=Cc1ccccc1 [benzaldehyde]
- number of winged soybean aphids caught per trap (winged soybean aphids): caught the most
- EAG responses of winged soybean aphids [3]: significantly stronger than the control

Compound: CC/C=C\CCO [(Z)-3 Hexenol]
- EAG responses of winged soybean aphids [3]: significantly stronger than the control

Compound: C=CC(C)=CCC=C(C)C [ocimene]
- EAG responses of winged soybean aphids [3]: significantly stronger than the control

Compound: CC/C=C\CCOC(C)=O [(Z)-3 hexenyl acetate]
- EAG responses of winged soybean aphids [3]: significantly stronger than the control
